Results on 34 compounds are retold here after patent publication EP1144368B1, “ACETYLENIC ALPHA-AMINO ACID-BASED SULFONAMIDE HYDROXAMIC ACID TACE INHIBITORS” (priority 1999, dated 2000).

Counter-ions that a name gives are not always drawn. Like-named read-outs stand apart in the source and are kept apart here.

The subject of the assay is THP-1 cells. The experiment in a line: THP-1 Soluble Protein Assay (LPS-stimulated; ELISA of TNF-a, TNF-R p75/80, TNF-R p55/60, IL-8). The format is cell-based, human. The following applies: for inhibition at 3 µM: Homo sapiens.
Setting [1] is: THP-1, read-out: THP % inhibition @ 3 µM, 3 µM.
Setting [2] is: THP-1, 3 µM, read-out: THP % Inhibition @ 3µM.

Procedure: Each vial of cells are cultured for about two weeks prior to being used for an assay and then are used for only 4 to 6 weeks to screen compounds.
Plates are placed into an incubator set at 5% CO2 and at 37° C. After 4 hours of incubation, 300 ml/well of tissue culture supernatant (TCS) is removed for use in an TNF-a ELISA.
Percent change in each soluble protein evaluated from the "vehicle positive control" was calculated for each compound concentration with the following formula: % Change =(pg/ml (compound) - pg/ml (veh pos control))/(pg/ml (veh pos control) - pg/ml (veh neg control))x 100 [formula]
For the soluble protein (TNF-a, p75/80, p55/60, IL-8) studies under stimulated conditions, the mean pg/ml of duplicate wells were determined and the results expressed as percent change from "vehicle positive control".

As to `CC#CCOc1ccc(S(=O)(=O)N(C)C(C(=O)NO)C(C)(C)SCCn2ccnc2)cc1` (stereo not shown) [Example 144, 2-({[4-(2-Butynyloxy)phenyl]sulfonyl)(methyl)amino]-N-hydroxy-3-methyl-3-{[2-(1H-imidazol-1-yl)ethyl]sulfanyl}butanamide], the inhibition at 3 µM under setting [1] was determined as 89%. Consider `CC#CCOc1ccc(S(=O)(=O)N(C)[C@H](CSC)C(=O)NO)cc1` [Example 154], for which, under setting [1], the inhibition at 3 µM was found to be 90%. In the case of `CC#CCOc1ccc(S(=O)(=O)N2C[C@@H](CNC(=O)OC(C)(C)C)SC(C)(C)[C@@H]2C(=O)NO)cc1` [Example 273, tert-Butyl{(2R,5S)-4-{[4-(2-butynyloxy)phenyl]sulfonyl}-5-[(hydroxyamino)carbonyl]-6,6-dimethylthiomorpholinyl}methylcarbamate], under setting [2], the inhibition at 3 µM amounted to 90%. Regarding `CC#CCOc1ccc(S(=O)(=O)N2[C@H](C)CSC(C)(C)[C@@H]2C(=O)NO)cc1` [Example 271, (3S,5R)-4-{[4-(2-Butynyloxy)phenyl]sulfonyl}-N-hydroxy-2,2,5-trimethyl-3-thiomorpholinecarboxamide], the inhibition at 3 µM under setting [2] came to 82%.

Turning to `CC#CCOc1ccc(S(=O)(=O)N2CC[S+]([O-])C(C)(C)C2C(=O)NO)cc1` (single isomer, unassigned) [Example 255], the “THP % inhibition @ 3 µM” value (3 µM) amounted to 95%.

On to `CC1(C)SCCN(S(=O)(=O)c2ccc(OCC#Cc3ccccc3)cc2)[C@H]1C(=O)NO` [Example 254, (3S)-N-Hydroxy-2,2-dimethyl-4-({4-[(3-phenyl-2-propynyl)oxy]phenyl}sulfonyl)-3-thiomorpholine carboxamide], for which the inhibition at 3 µM under setting [1] came to 77%. In the case of `CC#CCOc1ccc(S(=O)(=O)N(C)C(C(=O)NO)C(C)(C)SCCC)cc1` (stereo not shown) [Example 151, 2-[(4-But-2-ynyloxy-benenesulfonyl)-methyl-amino]-N-hydroxy-3-methyl-3-propylsulfanyl-butyramide], under setting [1], the inhibition at 3 µM was found to be 82%. Take `CC#CCOc1ccc(S(=O)(=O)NC(C(=O)NO)c2ccc(OCCN3CCCC3)cc2)cc1` (stereo not shown) [Example 205, 2-({[4-(2-Butynyloxy)phenyl]sulfonyl}amino)-N-hydroxy-2-{4-[2-(1-pyrrolidinyl)ethoxy]phenyl}acetamide]: the inhibition at 3 µM under setting [1] came to 66%.

Turning to `CC#CCOc1ccc(S(=O)(=O)N(Cc2cccnc2)C2(C(=O)NO)CCCCC2)cc1` [Example 137, 1-[{[4-(2-Butynyloxy)phenyl]sulfonyl}(3-pyridinylmethyl)amino] N-hydroxycyclohexanecarboxamide], the inhibition at 3 µM under setting [1] was 0%. Take `CC#CCOc1ccc(S(=O)(=O)N(CC2CC2)C(C(=O)NO)C(C)C)cc1` (stereo not shown) [Example 112, 2-[(4-But-2-ynyloxy-benzenesulfonyl)-cyclopropylmethyl-amino]-N-hydroxy-3-methyl-butyramide]: the inhibition at 3 µM under setting [1] turned out to be 50%. On the same count and under the same terms, the figure for `CC#CCOc1ccc(S(=O)(=O)N2CCN(C(=O)C3(C)COC(C)(C)OC3)CC2C(=O)NO)cc1` (stereo not shown) [Example 231, 1-{[4-(2-Butynyloxy)phenyl]sulfonyl}-N-hydroxy-4-[(2,2,5-trimethyl-1,3-dioxan-5-yl)carbonyl)-2-piperazinecarboxamide] is 73%; for `CC#CCOc1ccc(S(=O)(=O)N(CCN2CCOCC2)CC(=O)NO)cc1` [Example 124, 2-[{[4-(But-2-ynyloxy)phenyl]sulfonyl}(2-morpholin-4-ylethyl)amino]-N-hydroxyacetamide hydrochloride] it is 24%; for `CC1(C)SCCN(S(=O)(=O)c2ccc(OCC#CCCCN)cc2)[C@H]1C(=O)NO` [Example 251, (3S)-4-({4-[(6-Amino-2-hexynyl)oxy]phenyl}sulfonyl)-N-hydroxy-2,2-dimethyl-3-thiomorpholine carboxamide] it is 22%.

Turning to `CC#CCOc1ccc(S(=O)(=O)N2CCN(C(=O)CN)CC2C(=O)NO)cc1` (stereo not shown) [Example 230, 4-Aminoacetyl-1-(4-but-2-ynyloxy-benzenesulfonyl)-piperazine-2-carboxylic acid hydroxyamide], the inhibition at 3 µM under setting [1] is 27%. On to `CC#CCOc1ccc(S(=O)(=O)N2CCCSC[C@@H]2C(=O)NO)cc1` [Example 174], for which the inhibition at 3 µM under setting [2] is 80%.

On to `CC#CCOc1ccc(S(=O)(=O)N(C)C(C(=O)NO)c2ccc(OCCCNC(=O)OCCCC)cc2)cc1` (stereo not shown) [Example 195, Butyl 3-{4-[1-[{[4-(2-butynyloxy)phenyl]sulfonyl}(methyl)amino]-2-(hydroxyamino)-2-oxoethyl]phenoxy}propylcarbamate], for which the inhibition at 3 µM under setting [1] was 90%. For the compound `CC#CCOc1ccc(S(=O)(=O)N2C[C@H](CC(=O)NO)SC(C)(C)[C@@H]2C(=O)NO)cc1` [Example 279, (3S,6S)-4-{[4-(2-Butynyloxy)phenyl]sulfonyl}-N-hydroxy-6-[2-(hydroxyamino)-2-oxoethyl]-2,2-dimethyl-3-thiomorpholinecarboxamide], under setting [2], the inhibition at 3 µM came out at 87%. Regarding `CC#CCOc1ccc(S(=O)(=O)N2[C@@H](C(=O)NO)C(C)(C)SC[C@@H]2C)cc1` [Example 270, (3S,5S)-4-{[4-(2-Butynyloxy)phenyl]sulfonyl}-N-hydroxy-2,2,5-trimethyl-3-thiomorpholinecarboxamide], the inhibition at 3 µM under setting [2] worked out at 62%. As for `CC#CCOc1ccc(S(=O)(=O)N(C)C(C(=O)NO)C(C)(C)SCc2ccccc2)cc1` (stereo not shown) [Example 153, 2-[(4-But-2-ynyloxy-benenesulfonyl)-methyl-amino]-N-hydroxy-3-methyl-3-benzylsulfanyl-butyramide], the inhibition at 3 µM under setting [1] came out at 46%. For the compound `CC#CCOc1ccc(S(=O)(=O)N(C)[C@@H](C(=O)NO)c2ccc(O[C@H]3CCNC3)cc2)cc1` [Example 190, (2R)-2-[{[4-(2-Butynyloxy)phenyl]sulfonyl}(methyl)amino]-N-hydroxy-2-{4-[(3S)-pyrrolidinyloxy]phenyl}ethanamide], under setting [1], the inhibition at 3 µM was determined as 94%.

Take `CC#CCOc1ccc(S(=O)(=O)N(CC(C)C)C(C(=O)NO)C(C)C)cc1` (stereo not shown) [Example 113, 2-[(4-But-2-ynyloxy-benzenesulfonyl)-isobutyl-amino]-N-hydroxy-3-methyl-butyramide]: the inhibition at 3 µM under setting [1] is 0%. The same measure, in the same setting: with `CC#CCOc1ccc(S(=O)(=O)N2CCN(C(=O)Nc3ccc(F)cc3)CC2C(=O)NO)cc1` (stereo not shown) [Example 222, 4-{[4-(2-Butynyloxy)phenyl]sulfonyl}-N-1-(4-fluorophenyl)-N-3-hydroxy-1,3-piperazinedicarboxamide] the figure was 61%; with `CC#CCOc1ccc(S(=O)(=O)N2CCN(C(=O)N(CC)CC)CC2C(=O)NO)cc1` (stereo not shown) [Example 216, 4-(4-But-2-ynyloxy-benzenesulfonyl)-piperazine-1,3-dicarboxylic acid 1-diethylamide 3-hydroxyamide], 59%. Turning to `CC#CCOc1ccc(S(=O)(=O)N2C[C@H](CC(=O)OC(C)(C)C)SC(C)(C)[C@@H]2C(=O)NO)cc1` [Example 277, tert-Butyl{(2S,5S)-4-{[4-(2-butynyloxy)phenyl]sulfonyl}-5-[(hydroxyamino)carbonyl]-6,6-dimethylthiomorpholinyl}acetate], the inhibition at 3 µM under setting [2] was 69%. Take `CC#CCOc1ccc(S(=O)(=O)N2CCN(C(=O)CNC(=O)OC(C)(C)C)CC2C(=O)NO)cc1` (stereo not shown) [Example 229, {2-[4-(4-But-2-ynyloxy-bemenesulfonyl)-3-hydroxycarbamoyl-piperazin-1-yl]-2-oxo-ethyl}-carbamic acid tert-butyl ester]: under setting [1], the inhibition at 3 µM is 85%.

For `C#CCOc1ccc(S(=O)(=O)N2CCSC(C)(C)[C@@H]2C(=O)NO)cc1` [Example 258, (3S)-N-Hydroxy-2,2-dimethyl-4-{[4-(2-propynyloxy)phenyl]sulfonyl}-3-thiomorpholine carboxamide], under setting [1], the inhibition at 3 µM came to 91%. `CC#CCOc1ccc(S(=O)(=O)N2C[C@@H](CN)SC(C)(C)[C@@H]2C(=O)NO)cc1` [Example 275, (3S,6R)-Trans-6-(aminomethyl)-4-{[4-(2-butynyloxy)phenyl]sulfonyl}-N-hydroxy-2,2-dimethyl-3-thiomorpholinecarboxamide hydrochloride]: the inhibition at 3 µM under setting [2] was 82%. As to `CC#CCOc1ccc(S(=O)(=O)N(CCCN2CCOCC2)C(C(=O)NO)C(C)C)cc1` (stereo not shown) [Example 119, 2-{{[4-(2-Butynyloxy)phenyl]sulfonyl}[3-(4-morpholinyl)propyl]amino}-N-hydroxy-3-methylbutanamide], the inhibition at 3 µM under setting [1] is 61%. For the compound `CC1(C)SCCN(S(=O)(=O)c2ccc(OCC#CCN)cc2)C1C(=O)NO` (stereo not shown) [Example 265, 4-({4-[(4-Amino-2-butynyl)oxy]phenyl}sulfonyl)-N-hydroxy-2,2-dimethyl-3-thiomorpholine carboxamide], the inhibition at 3 µM under setting [1] was 40%. As for `CC#CCOc1ccc(S(=O)(=O)NC(C(=O)NO)c2ccc(OCCN3CCN(C(=O)OC(C)(C)C)CC3)cc2)cc1` (stereo not shown) [Example 202, tert-Butyl 4-(2-{4-[1-({[4-(2-butynyloxy)phenyl]sulfonyl}amino)-2-(hydroxyamino)-2-oxoethyl)phenoxy]ethyl)-1-piperazinecarboxylate], the inhibition at 3 µM under setting [1] is 45%.

For `CC#CCOc1ccc(S(=O)(=O)N2CCCN(C(=O)c3ccccc3)CC2C(=O)NO)cc1` (stereo not shown) [Example 49, 4-Benzoyl-1-(4-but-2-ynyloxy-benzenesulfonyl)-[1,4]diazepane-2-carboxylic acid hydroxyamide], the inhibition at 3 µM under setting [2] was found to be 32%. Consider `CC#CCOc1ccc(S(=O)(=O)N(CCCc2ccccc2)C(C(=O)NO)C(C)C)cc1` (stereo not shown) [Example 111, 2-[(4-But-2-ynyloxy-benzenesulfonyl)-(3-phenyl-propyl)-amino]-N-hydroxy-3-methyl-butyramide], for which, under setting [1], the inhibition at 3 µM stood at 35%. Take `CC#CCOc1ccc(S(=O)(=O)N(C)C(C(=O)NO)c2ccc(OCCNC(=O)OC(C)(C)C)cc2)cc1` (stereo not shown) [Example 180, tert-Butyl 2-{4-[1-[{[4-(2-butynyloxy)phenyl]sulfonyl}(methyl)amino]-2-(hydroxyamino)-2-oxoethyl]phenoxy}ethylcarbamate]: the inhibition at 3 µM under setting [1] was determined as 89%. For `CC#CCOc1ccc(S(=O)(=O)N2C[C@H](CC(=O)N3CCOCC3)SC(C)(C)[C@@H]2C(=O)NO)cc1` [Example 282, (3S,6S)-4-{[4-(2-Butynyloxy)phenyl]sulfonyl}-N-hydroxy-2,2-dimethyl-6-[2-(4-morpholinyl)-2-oxoethyl]-3-thiomorpholinecarboxamide], the inhibition at 3 µM under setting [2] is 91%.
